Consider 6 compounds from patent US11952365B2, “Anti-viral compounds” (Aligos Therapeutics, Inc., priority 2020, dated 2024).

The nature of data set [1]: Cytotoxicity plates without OC43 virus (cell-titer-glo). It counts as cell-based, human. Particulars: human; HeLa cells without OC43 virus, class symbols. Put shortly: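 Run as a virus-free counterpart of the OC43 cytopathic-effect assay. Attached HeLa cells received compound dilutions in EMEM with 2% FBS and were kept 6 days at 33 °C. Cell viability was then measured by CellTiter-Glo luminescence.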

A further data set concerns the target 3CLpro (Severe acute respiratory syndrome coronavirus 2, UniProt P0DTD1). Description: SARS-CoV-2 3CLpro protease assay (duplex, SAMDI-MS). It counts as biochemical. The arrangement: For the duplex assay, 3CLpro and HRV3C was added. The note with it: 3CLpro, 30 mins preincubation, class symbols; read-out: SARS-Cov-2 IC50.
In the next data set the target is HRV3C (Human rhinovirus 14, UniProt P03303). In words: HRV3C protease assay (duplex, SAMDI-MS). It counts as biochemical, HRV. Particulars: 30 mins preincubation. Put shortly: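 Readout is SAMDI mass spectrometry: biotinylated substrates, products and internal standards were immobilized on neutravidin monolayers and product formation taken as the AUC ratio to internal standard. Reactions ran 30 min at ambient temperature after 30 min compound preincubation, in duplex with 3CLpro. IC50 values came from four-parameter curve fitting.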

In data set [2] the test system is SARS-CoV-2-GHB-03021/2020. In words: microbe, parasite or virus in culture. It counts as cell-based. Particulars: Severe acute respiratory syndrome coronavirus 2, Vero C1008, 96 h; read-out: VeroE6 + CP (EC50).
Data set [3] is described as follows: in vitro. Particulars: human.
In data set [4] the test system is SARS-CoV-2-GHB-03021/2020. Description: SARS-CoV-2 Infection Model in Huh7 Cells. It counts as cell-based. Particulars: Severe acute respiratory syndrome coronavirus 2, Huh-7, 96 h, SARS-CoV-2, day 4 p.i., MTS.
Another data set concerns the target T1, human cathepsin L (Homo sapiens, UniProt P07711).
T1 construct: purchased R&D Systems
Description: cathepsin L assay. The note with it: 10 pM human cathepsin L, Z-FR-AMC 2 μM, class symbols. It counts as biochemical. Put shortly: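 Reactions began by adding 2 μM (final) Z-FR-AMC substrate to 10 pM human cathepsin L that had been preincubated 30 min with inhibitor. Kinetic AMC fluorescence at 355/460 nm over 30 min at 2-min intervals; four-parameter fitting gave IC50 values.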

Data set [5] has as its system human beta-coronavirus OC43. Description: microbe, parasite or virus in culture. It counts as cell-based. Particulars: Betacoronavirus 1, OC43, HeLa, 144 h, OC43 in HeLa cells, 6 days at 33° C., read-out: EC50.
Data set [6] can be described thus: in vitro. Particulars: African green monkey, VeroE6 + CP (CC50), Vero E6-eGFP cells with CP-100356, absence of virus, MTS.
The mark [7] stands for this setting: HRV3C, class symbols, read-out: HRV IC50.
Where [8] appears, read: HRV3C, bound, read-out: HRV IC50.

Molecules are shown by their SMILES. Where two headings read alike, the source gives them in different places. Where only a bound is given, the exact number is not on record here.

Usually IC50 stands for the concentration that gives 50% inhibition. As usually defined, the EC50 is the midpoint of the concentration-response curve. `COc1cccc2[nH]c(C(=O)N3CCC4(CC4)C[C@H]3C(=O)N[C@@H](C[C@@H]3CCCNC3=O)C(=O)CO)cc12` [Compound 44] gave a CC50 at 6 days in data set [1] greater than 10 µM. Also, the IC50 on 3CLpro is 0.02 to 0.2 µM; against HRV3C (HRV IC50, HRV3C, bound), greater than 10 µM; at human cathepsin L it was no less than 10 µM. For the same compound, the EC50 in data set [2] was 10 to 100 µM; in data set [4] (class symbols), 10 to 100 µM; in data set [5] (class symbols) it was 1 to 10 µM. Moreover, the CC50 in the data set “in vitro [3]” is greater than 10 µM; in the data set “in vitro [6]” (numeric bounds), greater than 100 µM.
`CC[C@@H]1C[C@@H](C(=O)N[C@@H](C[C@@H]2CCNC2=O)C(=O)C(=O)NCc2ccccc2)N(C(=O)c2cc3ccccc3[nH]2)C1` [Compound 28]: the CC50 at 6 days in data set [1] was greater than 10 µM. Besides, the results for the IC50 on 3CLpro, on HRV3C (setting [7]) and on human cathepsin L were 0.2 to 2 µM, 2 to 20 µM and less than 0.1 µM, respectively. Also, the figures for the EC50 in data set [2], in [4] (class symbols) and in data set [5] (class symbols) were 1 to 10 µM, less than 1 µM and 0.1 to 1 µM, respectively. The CC50 in “in vitro [3]” is greater than 10 µM; in “in vitro [6]” (numeric bounds), greater than 100 µM.
Turning to `COc1cc(C(F)(F)F)cc2[nH]c(C(=O)N3C[C@@H]4CCC[C@@H]4[C@H]3C(=O)N[C@@H](C[C@@H]3CCNC3=O)C(=O)CO)cc12` [Compound 163, (1S,3aR,6aS)—N—((S)-4-hydroxy-3-oxo-1-((S)-2-oxopyrrolidin-3-yl)butan-2-yl)-2-(4-methoxy-6-(trifluoromethyl)-1H-indole-2-carbonyl)octahydrocyclopenta[c]pyrrole-1-carboxamide], the CC50 at 6 days in data set [1] was greater than 10 µM. Also, the concentration for half-maximal inhibition (IC50) on 3CLpro is less than 0.02 µM; at HRV3C (setting [7]), 2 to 20 µM; against human cathepsin L, no less than 10 µM. Also, the EC50 in data set [2] was 1 to 10 µM; in data set [4] (class symbols) it was 1 to 10 µM; in data set [5] (class symbols), less than 0.1 µM. Moreover, the CC50 in “in vitro [3]” and in “in vitro [6]” (numeric bounds) was greater than 50 µM in each case.
In data set [1], `COc1cccc2[nH]c(C(=O)N3C[C@@H]4CCC[C@@H]4[C@H]3C(=O)N[C@@H](Cn3cc[nH]c3=O)C(=O)C(=O)NC3CC3)cc12` [Compound 119] displayed a CC50 at 6 days greater than 10 µM. The half-inhibitory concentration (IC50) was 0.2 to 2 µM at 3CLpro, greater than 10 µM on HRV3C (setting [8]) and no less than 10 µM against human cathepsin L. The EC50 in data set [2] was greater than 50 µM; in data set [4] (numeric bounds), greater than 50 µM; in data set [5] (bound), greater than 10 µM. Further, the CC50 in the data set “in vitro [3]” and in “in vitro [6]” (numeric bounds) was greater than 50 µM throughout.
The compound `O=C1NCC[C@H]1C[C@H](NC(=O)[C@@H]1[C@H]2CCC[C@H]2CN1C(=O)c1cc2c(Cl)cccc2[nH]1)C(=O)CO` [Compound 60, (1S,3aR,6aS)-2-(4-chloro-1H-indole-2-carbonyl)-N-[(2S)-4-hydroxy-3-oxo-1-[(3S)-2-oxopyrrolidin-3-yl]butan-2-yl]-hexahydro-1H-cyclopenta[c]pyrrole-1-carboxamide] yielded a CC50 at 6 days in [1] greater than 10 µM. In addition, the IC50 is less than 0.02 µM at 3CLpro, greater than 10 µM on HRV3C (setting [8]) and no less than 10 µM at human cathepsin L. Besides, the EC50 in data set [2] was less than 1 µM; in data set [4] (class symbols), less than 1 µM; in data set [5] (class symbols), less than 0.1 µM. Also, the CC50 in the data set “in vitro [3]” is greater than 100 µM; in “in vitro [6]” (class symbols) it was greater than 10 µM.
`CC1(C)[C@@H]2[C@@H](C(=O)N[C@@H](C[C@@H]3CCNC3=O)C(=O)CO)N(C(=O)c3cc4c(Cl)cc(Cl)cc4[nH]3)C[C@@H]21` [Compound 127, (1R,2S,5S)-3-(4,6-dichloro-1H-indole-2-carbonyl)-N-[(2S)-4-hydroxy-3-oxo-1-[(3S)-2-oxopyrrolidin-3-yl]butan-2-yl]-6,6-dimethyl-3-azabicyclo[3.1.0]hexane-2-carboxamide] gave a CC50 at 6 days in data set [1] greater than 10 µM. Moreover, the IC50 was 0.02 to 0.2 µM at 3CLpro, 2 to 20 µM at HRV3C (setting [7]) and no less than 10 µM at human cathepsin L. Also, the values for the EC50 in data set [2], in data set [4] (class symbols) and in data set [5] (class symbols) were less than 1 µM, less than 1 µM and 0.1 to 1 µM, respectively. Besides, the CC50 was greater than 10 µM in “in vitro [3]” and greater than 50 µM in the data set “in vitro [6]” (numeric bounds).
